Measurements taken from publication PMC9652372, “Glycolytic flux control by drugging phosphoglycolate phosphatase” (Nature Communications, 2022).
Where “and” joins values, the source holds several entries; their conditions need not be identical. Equal values may be shown once. Entries after “also recorded” stand apart in the source; their conditions may differ.

Legend:
[1] = test system: HT1080 cells; assay: NMR quantification of cellular metabolites; assay type: cell-based, human; details: Exp #1-5; on 1-Methylnicotinamide (NMR metabolite level): unit not given here; on Acetic acid (NMR metabolite level): unit not given here; on Glutathione (NMR metabolite level): unit not given here; on Glycerol 3-phosphate (NMR metabolite level): unit not given here; on Glycine (NMR metabolite level): unit not given here; on L-Lactic acid (NMR metabolite level): unit not given here; on L-Lysine (NMR metabolite level): unit not given here; on L-Tyrosine (NMR metabolite level): unit not given here; on L-Valine (NMR metabolite level): unit not given here; on Phosphocreatine (NMR metabolite level): unit not given here; on Pyroglutamate (NMR metabolite level): unit not given here; on Taurine (NMR metabolite level): unit not given here; on Tryptophan (NMR metabolite level): unit not given here
[2] = test system: HT1080 cells; assay: Lipid droplet staining (perilipin-3); assay type: cell-based, human
Description: Cells were fixed for 15 min with 4% para-formaldehyde, permeabilized and blocked with 0.2% saponin/2% bovine serum albumin (BSA) for 1 hr, and immunostained for 1 hr using α-rabbit TIP47/perilipin 3 antibodies (1:100 dilution, abcam #47638) in 0.2% saponin/1% BSA. Primary antibodies were detected with Alexa Fluor 488-labeled goat anti-rabbit secondary antibodies (1:400; Molecular Probes/Thermo Fisher Scientific), and nuclei were counterstained with DAPI. Cells were mounted with Immu-Mount (Fisher Scientific), and imaged by fluorescence microscopy on a THUNDER imager (THUNDER Imager Live Cell & 3D Cell Culture & 3D Assay system, Leica DMI8; Leica Microsystems), using a 63 × objective and the Leica Application suite X software 3.7.4.23463. To determine the number of lipid droplets per cell, cell borders were defined semi-automatically, and bright objects in this region of interest were counted using the ImagePro-Plus software version 7.0. Statistical significance was assessed using GraphPad Prism 9.4.1 software.

What does the source list for `O=C(Nc1ccccc1C(=O)O)c1ccc(Oc2ccc(C(=O)Nc3ccccc3C(=O)O)cc2)cc1` [CP1]?
Pyroglutamate (NMR metabolite level) ([1]; T3: 3h CP1-treated): 0.007789 and 0.006927 and 0.008071 and 0.008015 and 0.007303; Pyruvate (NMR metabolite level) ([1]; T3: 3h CP1-treated): 0.004887 and 0.004931 and 0.004602 and 0.004755 and 0.004949; Serine (NMR metabolite level) ([1]; T3: 3h CP1-treated): 0.006414 and 0.007411 and 0.00707 and 0.007401 and 0.006729; Succinic acid (NMR metabolite level) ([1]; T3: 3h CP1-treated): 0.001344 and 0.001543 and 0.001501 and 0.001841 and 0.001207; Taurine (NMR metabolite level) ([1]; T3: 3h CP1-treated): 0.006506 and 0.007653 and 0.005636 and 0.009663 and 0.004858; Tryptophan (NMR metabolite level) ([1]; T3: 3h CP1-treated): 0.0008552 and 0.0007865 and 0.0009671 and 0.0008436 and 0.0007846; UDP-N-Acetylglucosamine (NMR metabolite level) ([1]; T3: 3h CP1-treated): 0.00171 and 0.001573 and 0.002001 and 0.002147 and 0.00178; UDP-glucose (NMR metabolite level) ([1]; T3: 3h CP1-treated): 0.0008858 and 0.0008772 and 0.001067 and 0.000997 and 0.0009053; myo-Inositol (NMR metabolite level) ([1]; T3: 3h CP1-treated): 0.01161 and 0.01092 and 0.01214 and 0.0158 and 0.01228; 1-Methylnicotinamide (NMR metabolite level) ([1]; T24: 24h CP1-treated): 0.0006688 and 0.0007226 and 0.00078 and 0.0009117 and 0.0008029; 2-Hydroxyglutarate (NMR metabolite level) ([1]; T24: 24h CP1-treated): 0.01123 and 0.01613 and 0.01677 and 0.01849 and 0.01776; ADP (NMR metabolite level) ([1]; T24: 24h CP1-treated): 0.0007644 and 0.000746 and 0.001198 and 0.0008611 and 0.0008531; ATP (NMR metabolite level) ([1]; T24: 24h CP1-treated): 0.0006449 and 0.0006294 and 0.0008357 and 0.0006838 and 0.0006775; Acetic acid (NMR metabolite level) ([1]; T24: 24h CP1-treated): 0.003416 and 0.003823 and 0.003426 and 0.003622 and 0.002835; Choline (NMR metabolite level) ([1]; T24: 24h CP1-treated): 0.0001911 and 0.0002098 and 0.0002507 and 0.0002533 and 0.0003011; Creatine (NMR metabolite level) ([1]; T24: 24h CP1-treated): 0.005637 and 0.005968 and 0.005822 and 0.005673 and 0.00685; Dimethylamine (NMR metabolite level) ([1]; T24: 24h CP1-treated): 0.01722 and 0.009371 and 0.01178 and 0.009801 and 0.01006; Fumaric acid (NMR metabolite level) ([1]; T24: 24h CP1-treated): 0.0003583 and 0.0003497 and 0.0003621 and 0.0004052 and 0.0003764; Glutathione (NMR metabolite level) ([1]; T24: 24h CP1-treated): 0.00848 and 0.006947 and 0.009193 and 0.008991 and 0.00828; Glycerol 3-phosphate (NMR metabolite level) ([1]; T24: 24h CP1-treated): 0.005316 and 0.003498 and 0.00363 and 0.003634 and 0.003759; Glycerophosphocholine (NMR metabolite level) ([1]; T24: 24h CP1-treated): 0.0005972 and 0.0004662 and 0.000585 and 0.0005065 and 0.0006022; Glycine (NMR metabolite level) ([1]; T24: 24h CP1-treated): 0.01727 and 0.01921 and 0.02014 and 0.02011 and 0.0205; L-Alanine (NMR metabolite level) ([1]; T24: 24h CP1-treated): 0.006617 and 0.007063 and 0.007716 and 0.007015 and 0.00695; L-Arginine (NMR metabolite level) ([1]; T24: 24h CP1-treated): 0.002054 and 0.001585 and 0.002006 and 0.001975 and 0.001807; L-Aspartic acid (NMR metabolite level) ([1]; T24: 24h CP1-treated): 0.003296 and 0.003217 and 0.003844 and 0.003495 and 0.003463; L-Glutamic acid (NMR metabolite level) ([1]; T24: 24h CP1-treated): 0.03982 and 0.04634 and 0.04538 and 0.047 and 0.04456; L-Glutamine (NMR metabolite level) ([1]; T24: 24h CP1-treated): 0.05231 and 0.05105 and 0.05192 and 0.04586 and 0.05314; L-Isoleucine (NMR metabolite level) ([1]; T24: 24h CP1-treated): 0.007907 and 0.007716 and 0.008078 and 0.007775 and 0.007703; L-Lactic acid (NMR metabolite level) ([1]; T24: 24h CP1-treated): 0.08184 and 0.08616 and 0.0795 and 0.07679 and 0.07736; L-Leucine (NMR metabolite level) ([1]; T24: 24h CP1-treated): 0.00676 and 0.006597 and 0.007883 and 0.007192 and 0.007251; L-Lysine (NMR metabolite level) ([1]; T24: 24h CP1-treated): 0.002293 and 0.002238 and 0.002674 and 0.002431 and 0.002409; L-Methionine (NMR metabolite level) ([1]; T24: 24h CP1-treated): 0.002389 and 0.002331 and 0.002786 and 0.00276 and 0.002509; L-Phenylalanine (NMR metabolite level) ([1]; T24: 24h CP1-treated): 0.004013 and 0.003916 and 0.004123 and 0.003976 and 0.003889; L-Threonine (NMR metabolite level) ([1]; T24: 24h CP1-treated): 0.01522 and 0.01471 and 0.01638 and 0.01537 and 0.01478; L-Tyrosine (NMR metabolite level) ([1]; T24: 24h CP1-treated): 0.004491 and 0.004849 and 0.004652 and 0.004635 and 0.00424; L-Valine (NMR metabolite level) ([1]; T24: 24h CP1-treated): 0.007668 and 0.007693 and 0.007744 and 0.00775 and 0.007678; N,N-Dimethylformamide (NMR metabolite level) ([1]; T24: 24h CP1-treated): 0.0002389 and 0.0002331 and 0.0002786 and 0.0002533 and 0.0002509; NAD+ (NMR metabolite level) ([1]; T24: 24h CP1-treated): 0.002341 and 0.002611 and 0.002619 and 0.002533 and 0.002635; NADH (NMR metabolite level) ([1]; T24: 24h CP1-treated): 0.0002389 and 0.0002331 and 0.0003343 and 0.0002786 and 0.0002509; Phosphocreatine (NMR metabolite level) ([1]; T24: 24h CP1-treated): 0.001027 and 0.001002 and 0.001198 and 0.001165 and 0.001179; Phosphorylcholine (NMR metabolite level) ([1]; T24: 24h CP1-treated): 0.002054 and 0.002168 and 0.002256 and 0.002102 and 0.002158; Pyroglutamate (NMR metabolite level) ([1]; T24: 24h CP1-treated): 0.005255 and 0.004942 and 0.004596 and 0.005597 and 0.005796; Pyruvate (NMR metabolite level) ([1]; T24: 24h CP1-treated): 0.001983 and 0.001422 and 0.001532 and 0.001798 and 0.001932; Serine (NMR metabolite level) ([1]; T24: 24h CP1-treated): 0.005566 and 0.004965 and 0.004429 and 0.005901 and 0.004792; Taurine (NMR metabolite level) ([1]; T24: 24h CP1-treated): 0.00922 and 0.008998 and 0.009499 and 0.01099 and 0.01194; Tryptophan (NMR metabolite level) ([1]; T24: 24h CP1-treated): 0.0007883 and 0.0007693 and 0.0007243 and 0.0007851 and 0.0008029; UDP-N-Acetylglucosamine (NMR metabolite level) ([1]; T24: 24h CP1-treated): 0.003941 and 0.005105 and 0.006156 and 0.005242 and 0.005269; UDP-glucose (NMR metabolite level) ([1]; T24: 24h CP1-treated): 0.001935 and 0.001888 and 0.002981 and 0.002533 and 0.002559; myo-Inositol (NMR metabolite level) ([1]; T24: 24h CP1-treated): 0.007859 and 0.009021 and 0.01109 and 0.01281 and 0.00961; lipid droplet (LD) accumulation [2]: time- and concentration-dependent accumulation of LDs; also recorded: effectively increased LDs in PGP-WT but not in PGP-KO cells
